Measured values as given in patent US20180325869A1, “TARGETING OF THE FORMYL-PEPTIDE RECEPTOR 2/LIPOXIN A4 RECEPTOR (FPR2/ALX) FOR TREATMENT OF HEART DISEASE” (BRISTOL-MYERS SQUIBB COMPANY, priority 2015, published 2018).
pEC50, pIC50: −log10 of the molar value.

Key:
mFPR2/ALX = molecular target: T1, mFPR2/ALX (Mus musculus, UniProt O88536); test: cAMP assay in CHO-A12 cell line over-expressing mouse mFPR2; type: cell-based; details: CHO-A12 cells over-expressing mFPR2; read-out: potency as activator of mFPR2/ALX
T1 construct: expressed in transfected cells; host or cells: CHO-A12
T1 sequence (O88536 1-351): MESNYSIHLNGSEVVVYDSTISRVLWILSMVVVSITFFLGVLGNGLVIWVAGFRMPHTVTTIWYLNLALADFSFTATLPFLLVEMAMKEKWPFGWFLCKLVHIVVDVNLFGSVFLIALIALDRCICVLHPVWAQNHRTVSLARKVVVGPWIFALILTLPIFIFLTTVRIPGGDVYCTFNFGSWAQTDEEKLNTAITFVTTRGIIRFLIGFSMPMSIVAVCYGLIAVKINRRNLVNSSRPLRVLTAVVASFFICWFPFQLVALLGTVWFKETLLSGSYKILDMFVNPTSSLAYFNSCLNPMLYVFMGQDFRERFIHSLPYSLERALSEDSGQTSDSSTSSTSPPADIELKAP

mFPR3 = molecular target: T2, mFPR3 (Mus musculus, UniProt O08790); test: cAMP assay in CHO-A12 cell line over-expressing mouse mFPR3; type: cell-based; details: CHO-A12 cells over-expressing mFPR3; read-out: activity against mFPR3
T2 construct: expressed in transfected cells; host or cells: CHO-A12
T2 sequence (O08790 1-351): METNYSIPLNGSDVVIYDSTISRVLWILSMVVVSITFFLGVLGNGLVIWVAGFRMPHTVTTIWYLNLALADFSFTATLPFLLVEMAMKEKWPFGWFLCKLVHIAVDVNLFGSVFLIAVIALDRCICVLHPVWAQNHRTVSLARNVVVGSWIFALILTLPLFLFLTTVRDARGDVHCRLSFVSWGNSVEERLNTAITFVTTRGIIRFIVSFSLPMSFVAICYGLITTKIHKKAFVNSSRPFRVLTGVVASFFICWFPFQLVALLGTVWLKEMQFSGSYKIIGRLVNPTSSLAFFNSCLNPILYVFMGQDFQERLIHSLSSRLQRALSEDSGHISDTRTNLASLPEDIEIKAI

mFPR1 receptor = molecular target: T3, mFPR1 receptor (Mus musculus, UniProt P33766); test: Functional assay with mFPR1 receptor; type: cell-based; details: read-out: function affinity with mFPR1 receptor
T3 sequence (P33766 1-364): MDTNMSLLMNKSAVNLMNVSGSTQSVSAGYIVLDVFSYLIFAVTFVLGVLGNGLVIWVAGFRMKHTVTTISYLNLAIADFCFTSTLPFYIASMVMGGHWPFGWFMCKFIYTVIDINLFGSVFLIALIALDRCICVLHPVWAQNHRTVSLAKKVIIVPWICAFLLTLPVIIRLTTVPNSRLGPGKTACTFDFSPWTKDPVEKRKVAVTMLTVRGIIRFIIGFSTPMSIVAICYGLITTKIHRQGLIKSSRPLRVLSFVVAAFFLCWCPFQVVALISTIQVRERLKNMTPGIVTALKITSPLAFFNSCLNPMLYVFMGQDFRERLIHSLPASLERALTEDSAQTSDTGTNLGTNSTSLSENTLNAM

human HL60 cell line [1] = test: Flipr calcium flux assay using dHL60 cell line; type: cell-based; details: HL-60; neutrophil like human HL60 cell line; read-out: potency for increase of cytosolic Ca2+ levels
Description: Flipr assay using dHL60 non-adherent cell line. HL60 cells were diluted to 1.5×10^5 cells/ml and were grown in culture medium containing 1.3% DMSO at 37C for 5 days. On day 6 cells were counted to make sure that cells viability was approx. 95%. The 1.2×10^7 cells were spin down and washed cells once with assay buffer. The supernatant was removed and cells were re-suspended in 12 ml buffer with fluo-4 AM loading dye and label cells at 37C for 30 min. Loading buffer: HBSS (invitrogen, cat 14075), 20 mM HEPES, 0.1% FAF-BSA, 15 ul of 0.025% pluronic F127 (Invitrogen, P3000 MP), 2.5 mM probenecid, 1.9 uM Fluo-4 AM (Invitrogen, F14201). After incubation cells were washed once with reaction buffer to remove the dye and were re-suspended at 1×10^6 cells/ml. Following wash, cells were plated in 100 ul/well in Poly-D-Lysine pre-coated 96 well assay plates. Assay plates were centrifuged at 1000 rpm for 10 min and then placed in the FLIPR to perform calcium flux assay.

human HL60 cell line [2] = test: HL-60 cell migration assay agonist mode; type: cell-based; details: read-out: potency for stimulation of chemotaxis by itself
Description: (§1) HL-60 cell culture and differentiation. The HL-60 cell line (ATCC, CCL-240, lot 60398411) was maintained in IMDM (Life Tech, cat 12440-053) medium supplemented with 20% fetal bovine serum, 50 U/ml penicillin, and 50 μg/ml streptomycin at 37° with 5% CO2. Cells were differentiated into the granulocyte lineage with DMSO; 2.5×10^5 cells/ml were incubated with 1.25% DMSO for 5 days.
Neutrophil and HL-60 cell migration assay agonist mode. After 5 day differentiation, cells were resuspended in phenol free RPMI (Invitrogen, cat 11835) with 0.2% fatty acid free BSA at a concentration of 3×10^7 cells/ml. The dHL-60 cells (10^5 in 100 μl) were added to the upper chamber of each HTS transwell-96well plate (Corning#3387). Migration was induced by placing chemoattractant in the bottom chamber and the dHL60 cells in the top chamber of the transwell plate. Cells were allowed to migrate for 120 min across the 5 micron filters at 37° with 5% CO2. Following migration, neutrophils or dHL-60 cells remaining in the transwell lower chamber (migrated fraction) were quantitated using the cell-titer-glo luminescence cell viability assay (Promega, G7571).

human HL60 cell line [3] = test: HL-60 cell migration assay antagonist mode (SAA-induced chemotaxis); type: cell-based; details: read-out: affinity for antagonism of chemotaxis induced by SAA
Description: as §1
Neutrophil and HL-60 cell migration assay antagonist mode. After 5 day differentiation, the cells were resuspended in phenol free RPMI (Invitrogen, cat 11835) with 0.2% fatty acid free BSA at a concentration of 3×10^7 cells/ml. The dHL-60 cells (10^5 in 100 μl) were pre-incubated for 15 minutes with varying concentrations of the […] at 37° with 5% CO2. Then 0.8uM of the recombinant serum amyloid A1 peptide (rSAA1, PeproTech, Cat#300-53) was added to the bottom chamber of each HTS transwell-96well plate (Coming#3387). Migration was induced by placing […] and the dHL60 cells mixture in the top chamber of the transwell plate. Cells were allowed to migrate for 120 min across the 5micron filters at 37° with 5% CO2. Following migration, neutrophils or dHL-60 cells remaining in the transwell lower chamber (migrated fraction) were quantitated using the cell-titer-glo luminescence cell viability assay (Promega, G7571).

[4] = tested on: mouse bio-gel elicited peritoneal macrophages; test: Enhancement of phagocytosis in bio-gel elicited peritoneal macrophages; type: cell-based
Description: Enhancement of phagocytosis. Macrophages were elicited to the peritoneum of five C57BL6 mice by peritoneal injection of 1 ml of 1% Biogel in PBS (−/−) 4 days prior to harvest. Peritoneal exudates are harvested, combined and then filtered to remove Biogel beads. First, through a 70 um cell strainer followed by successively filtering through two 40 um cell strainers. The exudate is diluted with 1× PBS (−/−) to 50 ml and centrifuged at 300× g for 10 minutes at 4° C. The cell pellet is gently resuspended in 20-30 ml 1× PBS(+/+) and cells are counted using the Nexelcom Cellometer counter. Cell concentration is adjusted to 1,250,000 cells/ml in 1× PBS (+/+). 100 ul (125 k) cells are placed into each well of a 96-well Costar 3904 plate. The plates are centrifuged at 150× g for 30 seconds to promote adherence. […] Fluorescence signal from non-ingested Zymosan particles is quenched with 150 ul ice-cold 1:15 diluted Trypan Blue solution for 2 minutes and then aspirated to remove. Lastly, the plate is read on a SpectraMAX Gemini EM fluorescence plate reader in 150 ul of 1:50 diluted Trypan Blue. Plate Reader Settings=Bottom Read: Excitation 493 nm: Emission 525 nm: Cutoff 515 nm: Automix Off: Calibrate On: PMT=Auto: Column Priority: Reads/Well=20.

mice [5] = test: Permanent coronary artery occlusion myocardial infarction model; type: in vivo
Description: Animal models. Permanent coronary artery occlusion was carried out in mice using a ligature placed around the left anterior descending artery to induce myocardial infarction. […] Mice subjected to thoracotomy but not infarcted were included as surgical “sham” controls. Mice were evaluated 28 days following myocardial infarction to assess structure/function relationships. Hearts were removed from mice to evaluate the passive mechanics of the myocardium. To do this, ex vivo pressure-volume relationships of the left ventricle were measured via inflation and deflation cycles of a balloon placed within the left ventricle of the excised heart. Two-dimensional strains of the myocardial scar were also measured to determine the compliance of infarcted tissue. Hearts were also processed histologically to measure left ventricular dimensions, infarct areas and infarct collagen composition.

mice [6] = test: Angiotensin II challenge myocardial fibrosis model; type: in vivo, mouse; details: for decrease of left ventricular hydroxyproline content vs vehicle: p<0.05
Description: To assess myocardial fibrosis, mice were challenged with angiotensin II to stimulate cardiac hypertrophy and left ventricular collagen deposition. Mice were administered angiotensin II using subcutaneously implanted osmotic mini-pumps (˜2 mg/kg/day) A separate group of mice were implanted with subcutaneous pumps containing saline (surgical “sham” group); these mice served as control for pump implantation surgery. […] Treatments lasted for 2-3 weeks, depending on the exact study design. At the end of treatment phase, hearts were removed from animals and evaluated for collagen levels/fibrosis using a standard colorimetric assay for myocardial hydroxyproline or by cross-sectional histology of the hearts.
Myocardial fibrosis was evaluated in the mouse with continuous angiotensin II challenge administered by subcutaneous osmotic mini-pump.

[7] = mice, oral 1 and 10 mg/kg QD, stated for both models

`CC(C)c1c(NC(=O)Nc2ccc(Cl)cc2)c(=O)n(-c2ccccc2)n1C` [Compound 1, 1-(4-chlorophenyl)-3-(5-isopropyl-1-methyl-3-oxo-2-phenyl-2,3-dihydro-1H-pyrazol-4-yl)urea] was tested, and the pEC50 (mFPR2/ALX) was 7.70, the pEC50 (mFPR3) was less than 5.00 and the pEC50 (mFPR1 receptor) was roughly 7.30. It also gave a pEC50 (human HL60 cell line [1]) of 7.30, a pEC50 (human HL60 cell line [2]) of 7.11 and a pIC50 (human HL60 cell line [3]) of 6.72. The “enhancement of phagocytosis of fluorescently labeled zymosan vs untreated control cells” value ([4]; compound in picomolar range, depending on experimental conditions) was 250 to 60%, the “enhancement of phagocytosis in knockout macrophages” value ([4]; macrophages from single mFPR2 and mFPR3 or double mFPR2/FPR3 knockout mice) was “no such enhancement” and the “reduction of infarct area (as % of left ventricle area) vs vehicle” value (mice [5]; 1 mg/kg, histology, p<0.05) was 44%. The “reduction of left ventricular chamber area vs vehicle (histology)” value (mice [5]; 1 mg/kg, p<0.05) was 28%, the “reduction of infarct area (as % of left ventricle area) vs vehicle” value (mice [5]; 10 mg/kg, histology, p<0.05) was 49% and the “reduction of left ventricular chamber area vs vehicle (histology)” value (mice [5]; 10 mg/kg, p<0.05) was 30%. The “ex vivo left ventricle pressure-volume curves” value (mice [5]; 28 days post MI, 1 and 10 mg/kg QD oral) was “left shifted in a dose-dependent manner”, the “pressure-volume slopes (myocardial stiffness)” value (mice [5]; 28 days post MI, ex vivo) was “greater than vehicle and similar to normal sham control mice” and the two-dimensional scar strains (mice [5]; 28 days post MI, ex vivo) was “reduced circumferential and longitudinal strains relative to vehicle treatment”. For the same compound, the overall mortality (mice [5]; high dose) was “decrease in overall mortality”, the “increased anterior left ventricular wall thickness at site of infarction vs vehicle” value (mice [5]; histology, p<0.05) was 45-65% and the “tolerability throughout the in-life phase” value (mice [5]; [7]) was “well tolerated”. The “untoward effects on the physiology of the mice” value (mice [5]; [7]) was “no untoward effects”, the “decrease of left ventricular hydroxyproline content vs vehicle” value (mice [6]; 1 mg/kg, pre-treatment 24 h before angiotensin II, 2 weeks) was 83% and the “decrease of left ventricular hydroxyproline content vs vehicle” value (mice [6]; 10 mg/kg, pre-treatment 24 h before angiotensin II, 2 weeks) was 75%. For the same compound, the “interstitial collagen by histology of the left ventricle” value (mice [6]; pre-treatment 24 h before angiotensin II, 2 weeks) was “Comparable reductions”, the “hydroxyproline content and interstitial collagen levels by histology” value (mice [6]; treatment given at the time of angiotensin II challenge) was “comparable reductions” and the “reduction of interstitial fibrosis in the left ventricle vs vehicle” value (mice [6]; treatment started after 3 days of angiotensin II, 2.5 weeks, histology, p<0.001) was roughly 74%.
